Source: patent US20200231685A1, “CONJUGATES FOR TREATING INFLAMMATORY DISEASE AND IDENTIFICATION OF PATIENTS LIKELY TO BENEFIT FROM SUCH TREATMENT” (The University of Bristol, priority 2013, published 2020)

What was measured:
[1] = tested on: Experimental Autoimmune Uveitis (EAU); format: in vivo, mouse; details: Day 18; PMA and ionomycin 4 hours
Th0 (CCR6-) cells = assay: Intracellular IFNγ expression by flow cytometry in human Th0 cultures; format: cell-based; details: 24 hrs incubation
Excerpt: (§1) FIGS. 23A-23B show suppression of IL-17A in human Th17 (CCR6+) cells and IFNγ cytokine production in human Th0 (CCR6^−) and Th17 cells. CCR6 positive and CCR6 negative CD4^+ T cells were purified and cultured in the presence of polarising cytokines for two weeks. […] Intracellular cytokines were quantified by flow cytometry (FIG. 23A) and percentage suppression calculated in relation to an untreated control (FIG. 23B). Data represents the mean expression of three to four normal volunteers, with error expressed as standard deviation.
Cell Cultures. Murine Naive T cells were obtained from lymph nodes and spleens of OT-II/3A9 mice using CD4 positive selection kits following the manufacturer's instructions (Miltenyi Biotech). Splenocytes from respective wild-type mice were irradiated and mixed with the CD4^+ T cells at a 1:10 ratio. […] All cells were kept in a 37° C., 5% CO2 humidified incubator. Cells were used after two rounds of activation. […]

Th17 (CCR6+) cells = assay: Intracellular IL-17 / IFN-γ expression by flow cytometry in human Th17 cultures; format: cell-based
Excerpt: Absolute expression was plotted on a log2 scale colour coded from low to high expression. […] All data are represented as mean±SEM.
as §1, with “CCR6” for “FIGS. 23A-23B show suppression of IL-17A in human Th17 (CCR6+) cells and IFNγ cytokine production in human Th0 (CCR6^−) and Th17 cells. CCR6”
Therefore, to determine whether in vitro, human CD4+Th17 T cells were responsive to glucocorticoids, we generated an IL-17 secreting CD4+ T cell subset using the innate expression of CCR6. […] As a result of glucocorticoid binding the glucocorticoid receptor (GR), the GR translocates to the nucleus and binds to glucocorticoid-response elements within the DNA. […] We then compared the translocation of the GR in Th17 and Th0 cells.
Cell Cultures. Murine Naive T cells were obtained from lymph nodes and spleens of OT-II/3A9 mice using CD4 positive selection kits following the manufacturer's instructions (Miltenyi Biotech). Splenocytes from respective wild-type mice were irradiated and mixed with the CD4^+ T cells at a 1:10 ratio. […] All cells were kept in a 37° C., 5% CO2 humidified incubator. Cells were used after two rounds of activation. Human peripheral CD4^+CCR6^− (Th0) and CD4^+CCR6^+ (Th17) cells were FACS sorted, resuspended to 2×10^6cells/ml in complete RPMI-1640 (Invitrogen) supplemented with 10% FCS, L-glutamine and Penicillin/streptomycin (all PAA Laboratories Ltd, UK), stimulated with plate-bound 5 μg/ml anti-CD3 and 5 μg/ml anti-CD28 antibodies (eBioscience, US) (Th0) or with plate-bound antibodies and a polarizing cytokine cocktail of 20 ng/ml IL-6, 10 ng/ml IL-23, 10 ng/ml IL-1β (R&D Systems, US), 100 ng/ml anti-IFN-γ, 100 ng/ml anti-IL-4 (eBioscience, US) (Th17) for 3 days. […]

CD4+ T cells = assay: Inhibition of isolated CD4+ T cell proliferation (tritiated thymidine incorporation); format: cell-based, human
Protocol: Proliferation was measured by tritiated thymidine incorporation (ccpm). Data represents the mean of two normal volunteers, with error expressed as standard deviation.
T Cell Proliferation Assays. T cell proliferation was measured by pulsing with 18.5 kBq [^3H] thymidine (GE Healthcare, US) per well for the final 12 hours of cultures and determining thymidine uptake in counts per minute (c.p.m).

## C[C@@H]1C[C@H]2[C@@H]3CCC4=CC(=O)C=C[C@]4(C)[C@@]3(F)[C@@H](O)C[C@]2(C)[C@@]1(O)C(=O)CO [Dex, dexamethasone]
[1]
  suppression of IFN-γ expression in eye infiltrating CD4+ cells: 45%

## C=CC[C@@H]1/C=C(\C)C[C@H](C)C[C@H](OC)[C@H]2O[C@@](O)(C(=O)C(=O)N3CCCC[C@H]3C(=O)O[C@H](/C(C)=C/[C@@H]3CC[C@@H](O)[C@H](OC)C3)[C@H](C)[C@@H](O)CC1=O)[C@H](C)C[C@@H]2OC [tacrolimus]
Th0 (CCR6-) cells
  suppression of IFNγ production in Th0 (CCR6-) cells: equally suppress
Th17 (CCR6+) cells; 24 hrs incubation
  suppression of IFNγ production in Th17 cells: equally suppress
  suppression of IL-17A production in Th17 (CCR6+) cells: equally suppress
Th17 (CCR6+) cells; IL-17 in Th17, IFNγ in Th17 and Th0 cells
  dose required for cytokine suppression, less than cyclosporine A: 20 ×
CD4+ T cells
  concentration for full inhibition of CD4+ cell proliferation, lower compared with cyclosporine A: 20 fold
  dose achieving the same inhibition of CD4+ T cell proliferation: 10 ng/mL
